According to patent publication US20230026277A1, “COMPOSITION FOR PREVENTION, ALLEVIATION, OR TREATMENT OF RESPIRATORY DISEASE” (MICROX CO., LTD., priority 2019, published 2023):

Tests used:
Type in all cases: in vivo
asthma-induced mice = experiment: Bronchial hypersensitivity reaction (Rrs value, methacholine), asthma-induced mice; settings: for bronchial hypersensitivity reaction: Experiment Result 7, orally administered daily, FIG. 21
Experimental: (§1) Eight-week-old female […] mice (Orient Bio Korea Inc., Korea) having no certain pathogen were accommodated in an aseptic laminar-flow cabinet, and bred by supplying a standard solid feed ad libitum. When the following experiment was performed, the mice were made to correspond to 7- to 8-weeks old, and all laboratory animals were managed according to the protocol approved by the Institutional Animal Care and Use Committee of the Chonbuk National University Medical School.
(§2) Also, on days 21 and 28 from the experimental starting date, the mice were put into a plastic box (Plexiglas (Rohm & Haas, Philadelphia, Pa.) exposure chamber; 24.5 cm×40.5 cm×15.0 cm), and 1.5% ovalbumin was evaporated using an ultrasonic nebulizer (NE-U12; output 0.8 mL/min; Omron, Japan), and injected into the box for 30 minutes so that the mice inhaled the evaporated ovalbumin (secondary challenge).
45 mg/kg of sodium pentobarbital was intraperitoneally injected into the mice prepared in Experimental Method 1 to anesthetize the mice, and the airways were cut and an 18 gauge needle was inserted into the airways. Thereafter, the needle was connected to a small-sized animal respirator connected to a computer, and the computer system was adjusted to a respiration rate of 150 breaths per minute. Then, methacholine in the form of aerosol was fed at an increasing concentration of 5.0 to 50 mg/mL so that the mice inhaled the methacholine. Then, an airway response was measured, and indicated as an Rrs value.
Preparation Example 3 (α,δ-NA-L-G) or α,δ N-acetyl-D-glutamine was orally administered to the asthma-induced mice of Experimental Method 1 at a concentration of 200 or 400 μg/kg/day 30 minutes before a secondary airway challenge, and the bronchial hypersensitivity reaction was measured 48 hours after the secondary challenge using the method described in Experimental Method 5. The results are shown in A and B of FIG. 5.

IL-4, IL-5, and IL-13 = experiment: Cytokines in bronchoalveolar lavage fluid by ELISA, asthma-induced mice; settings: asthma-induced mice; for expression levels of the cytokines (IL-4, IL-5, and IL-13): Experiment Result 7, orally administered daily, FIG. 20
Experimental: as §1, §2
(§3) After the mice were anesthetized, a thin tube was inserted into the airway, and a piston process was repeated using a syringe filled with 0.2 mL of physiological saline to obtain a bronchoalveolar lavage fluid. The bronchoalveolar lavage fluid obtained through this piston process was stored at −70° C. when it was not immediately used in the experiments.
(§4) A level of cytokines in the bronchoalveolar lavage fluid obtained in Experimental Method 2 was measured using an ELISA kit. Here, ELISA kits specifically manufactured for TNF-α, IL-4, IL-5, and IL-13 were used.
Preparation Example 3 (α,δ-NA-L-G) or α,δ N-acetyl-D-glutamine was orally administered to the asthma-induced mice of Experimental Method 1 at a concentration of 100, 200, 400 or 800 μg/kg/day 30 minutes before a secondary airway challenge, and levels of IL-4, IL-5, and IL-13 were measured through the method described above in Experimental Method 4 24 hours after the secondary challenge. The results are shown in A and B of FIG. 4.

[1] = test system: neutrophils and eosinophils introduced into the airway; experiment: Inflammatory cells (neutrophils and eosinophils) in bronchoalveolar lavage fluid, Diff-Quik staining, asthma-induced mice; settings: asthma-induced mice; for cell numbers of neutrophils and eosinophils: Experiment Result 7, orally administered daily, FIG. 19
Experimental: as §1, §2, §3
50 μL of the bronchoalveolar lavage fluid obtained in Experimental Method 2 was put on a slide used for the cytospin, and centrifuged for 30 minutes. Thereafter, Diff-Quik staining was performed, and inflammatory cells (neutrophils and eosinophils) were observed using a microscope.
Preparation Example 3 (α,δ-NA-L-G) or α,δ N-acetyl-D-glutamine (α,δ-NA-D-G) was orally administered to the asthma-induced mice of Experimental Method 1 daily from the experimental starting date at a concentration of 50, 100, or 200 μg/kg/day, and the cell numbers of neutrophils and eosinophils introduced into the airway through the method of Experimental Method 3 were measured. The results are shown in A and B of FIG. 3. In this case, the cell numbers were measured at 10 hours (neutrophils) or 48 hours (eosinophils) after a secondary challenge.

CK2α protein = experiment: Western blot of CK2α protein in lung of asthma-induced mice; settings: administered daily; 1 or 2 hours after the secondary challenge; FIG. 10
Experimental: as §2
A tissue was extracted from each of the mice manufactured in Experimental Method 1, and finely ground to a cell level. Thereafter, the cells were lysed in a cell lysis buffer containing a protease inhibitor to obtain a cell lysate. The cell lysate was centrifuged to obtain protein. Then, an equivalent amount of the proteins obtained from the cells were loaded on an SDS-PAGE gel and electrophoresed. The proteins present in the electrophoresed gel were transferred to a PVDF membrane. The PVDF membrane was washed, and added to a blocking buffer in which 5% skim milk was included in a TBS-T buffer, and incubated at room temperature. Then, the PVDF membrane was incubated at room temperature with an antibody diluted 1:1,000 in a TBS-T buffer containing 3% BSA. […] The PVDF membrane was washed three times with a TBS-T buffer, and visualized and quantified using an ECL Western blotting detection reagent. […]
Specifically, the secondary challenge (ovalbumin injection) was performed according to the method described above in Experimental Method 1, and the lungs were extracted after an hour, and then measured according to the method described above in Experimental Method 7. […] Also, the level of TNF-α corresponding to an NK-κB-dependent cytokine was measured by ELISA according to the method described above in Experimental Method 4. […]
The secondary challenge (ovalbumin injection) was performed according to the method described above in Experimental Method 1, and the lungs were extracted after 1 or 2 hours, and then measured according to the method described above in Experimental Method 7. […]

NF-κB and TNF-α = experiment: NF-κB (Western blot) and TNF-α (ELISA) in asthma-induced mice; settings: administered daily
Experimental: as §2, §4
A tissue was extracted from each of the mice manufactured in Experimental Method 1, and finely ground to a cell level. Thereafter, the cells were lysed in a cell lysis buffer containing a protease inhibitor to obtain a cell lysate. The cell lysate was centrifuged to obtain protein. Then, an equivalent amount of the proteins obtained from the cells were loaded on an SDS-PAGE gel and electrophoresed. The proteins present in the electrophoresed gel were transferred to a PVDF membrane. The PVDF membrane was washed, and added to a blocking buffer in which 5% skim milk was included in a TBS-T buffer, and incubated at room temperature. Then, the PVDF membrane was incubated at room temperature with an antibody diluted 1:1,000 in a TBS-T buffer containing 3% BSA. Then, the PVDF membrane was washed with a TBS-T buffer, and incubated at room temperature for an hour with a dilute solution containing HRP-bound IgG. The PVDF membrane was washed three times with a TBS-T buffer, and visualized and quantified using an ECL Western blotting detection reagent.
Here, antibodies specific to elastin, caspase-3, collagen, MKP-1, p-cPLA, p-p38, NF-κB(p65), CK2α, GAPDH, or β-actin were used in the Western blot.
Specifically, the secondary challenge (ovalbumin injection) was performed according to the method described above in Experimental Method 1, and the lungs were extracted after an hour, and then measured according to the method described above in Experimental Method 7. The results are shown in A of FIG. 9. Also, the level of TNF-α corresponding to an NK-κB-dependent cytokine was measured by ELISA according to the method described above in Experimental Method 4. The results are shown in B of FIG. 9. […]
The secondary challenge (ovalbumin injection) was performed according to the method described above in Experimental Method 1, and the lungs were extracted after 30 or 60 minutes, and then measured according to the method described above in Experimental Method 7. […] Also, the level of TNF-α corresponding to an NK-κB-dependent cytokine was measured by ELISA according to the method described above in Experimental Method 4. […]

Row | SMILES | bronchial hypersensitivity reaction (asthma-induced mice) | expression levels of the cytokines (IL-4, IL-5, and IL-13) (IL-4, IL-5, and IL-13) | cell numbers of neutrophils and eosinophils [1] | other results
1 | CC(=O)NC(=O)CC[C@H](NC(C)=O)C(=O)OCc1ccccc1 [Preparation Example 2, Benzyl 2,5-diacetamido-5-oxopentanoate] | inhibited | decreased | decreased | 
2 | CCOC(=O)[C@H](CCC(=O)NC(C)=O)NC(C)=O [Preparation Example 4, Ethyl 2,5-diacetamido-5-oxopentanoate] | inhibited | decreased | decreased | 
3 | COC(=O)[C@H](CCC(=O)NC(C)=O)NC(C)=O [Preparation Example 6] | inhibited | decreased | decreased | 
4 | Oc1ccc(-c2nc(-c3ccncc3)c(-c3ccc(F)cc3)[nH]2)cc1 [SB202190, reference compound] |  |  |  | level of the CK2α protein (CK2α protein): decreased
5 | Brc1c(Br)c(Br)c2n[nH]nc2c1Br [inhibitor of the CK2α protein, TBBt, reference compound] |  |  |  | level of the presence of the TNF-α protein (NF-κB and TNF-α; ELISA, FIG. 11B): decreased; level of the NF-κB protein (NF-κB and TNF-α; at 30 and 60 minutes after secondary challenge, FIG. 11): decreased
6 | CC(=O)NC(=O)CC[C@@H](NC(C)=O)C(=O)O [α,δ N-acetyl-D-glutamine, reference compound] |  |  |  | Rrs value (bronchial hypersensitivity reaction) (asthma-induced mice; oral 200 or 400 μg/kg/day 30 minutes before secondary challenge, 48 hours after, methacholine 5.0 to 50 mg/mL, FIG. 5): did not exhibit an inhibitory effect; levels of the cytokines (IL-4, IL-5, IL-13) (IL-4, IL-5, and IL-13; oral 100, 200, 400 or 800 μg/kg/day, regardless of the concentration, 24 hours after secondary challenge, FIG. 4B): did not inhibit; inflow of the neutrophils and eosinophils into the airway ([1]; oral daily 50, 100 or 200 μg/kg/day, neutrophils 10 hours, eosinophils 48 hours after secondary challenge, FIG. 3): not inhibited
